Key:
Experiment in all cases: relative viability (nuclei count vs DMSO), 5 days (fraction); higher = more cells survive
[1] = system: NCI-H1355
How it was run: (§1)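 Lung cancer cell lines were pin-tool dosed in 1536-well plates on the day after seeding, with either a lone drug or a fixed anchor-drug dose plus five library-drug doses (not always all listed) in √10 steps. Nuclei were counted on 4× images after 5 days. Relative viability is the ratio of treated-well to vehicle-well nuclei counts, with each value a median of duplicate plates.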

[2] = system: NCI-H1437
How it was run: as §1

[3] = system: HARA
How it was run: as §1

[4] = system: HCC-44
How it was run: as §1

[5] = system: NCI-H2342
How it was run: as §1

[6] = system: NCI-H2228
How it was run: as §1

[7] = system: NCI-H1734
How it was run: as §1

[8] = system: NCI-H2170
How it was run: as §1

[9] = system: NCI-H1792
How it was run: as §1

[10] = system: HCC-827
How it was run: as §1

[11] = system: EKVX
How it was run: as §1

[12] = system: NCI-H2009
How it was run: as §1

[13] = system: NCI-H647
How it was run: as §1

[14] = system: HCC-366
How it was run: as §1

[15] = system: NCI-H2405
How it was run: as §1

[16] = system: NCI-H661
How it was run: as §1

[17] = system: NCI-H2087
How it was run: as §1

[18] = system: NCI-H1395
How it was run: as §1

[19] = system: SK-MES-1
How it was run: as §1

[20] = system: LOU-NH91
How it was run: as §1

[21] = system: LC-2-ad
How it was run: as §1

[22] = system: SK-LU-1
How it was run: as §1

[23] = system: BEN
How it was run: as §1

Structure (SMILES): Clc1ccc(Nc2nnc(Cc3ccncc3)c3ccccc23)cc1 [Vatalanib] + CC(=O)c1c(C)c2cnc(Nc3ccc(N4CCNCC4)cn3)nc2n(C2CCCC2)c1=O [Palbociclib] (partner 0.5 µM)
- relative viability ([1]; first compound 0.04 µM): 0.434
- relative viability ([1]; first compound 0.1265 µM): 0.428
- relative viability ([1]; first compound 0.4 µM): 0.424
- relative viability ([1]; first compound 1.265 µM): 0.35
- relative viability ([1]; first compound 4 µM): 0.388
- relative viability ([2]; first compound 0.04 µM): 0.309
- relative viability ([2]; first compound 0.1265 µM): 0.318
- relative viability ([2]; first compound 0.4 µM): 0.356
- relative viability ([2]; first compound 1.265 µM): 0.294
- relative viability ([2]; first compound 4 µM): 0.279
- relative viability ([3]; first compound 0.04 µM): 0.227
- relative viability ([3]; first compound 0.1265 µM): 0.361
- relative viability ([3]; first compound 0.4 µM): 0.224
- relative viability ([3]; first compound 1.265 µM): 0.244
- relative viability ([3]; first compound 4 µM): 0.238
- relative viability ([4]; first compound 0.04 µM): 0.922
- relative viability ([4]; first compound 0.1265 µM): 0.981
- relative viability ([4]; first compound 0.4 µM): 0.913
- relative viability ([4]; first compound 1.265 µM): 0.955
- relative viability ([4]; first compound 4 µM): 0.959
- relative viability ([5]; first compound 0.04 µM): 0.489
- relative viability ([5]; first compound 0.1265 µM): 0.507
- relative viability ([5]; first compound 0.4 µM): 0.46
- relative viability ([5]; first compound 1.265 µM): 0.579
- relative viability ([5]; first compound 4 µM): 0.593
- relative viability ([6]; first compound 0.04 µM): 0.795
- relative viability ([6]; first compound 0.1265 µM): 0.838
- relative viability ([6]; first compound 0.4 µM): 0.806
- relative viability ([6]; first compound 1.265 µM): 0.765
- relative viability ([6]; first compound 4 µM): 0.612
- relative viability ([7]; first compound 0.04 µM): 0.338
- relative viability ([7]; first compound 0.1265 µM): 0.314
- relative viability ([7]; first compound 0.4 µM): 0.396
- relative viability ([7]; first compound 1.265 µM): 0.33
- relative viability ([7]; first compound 4 µM): 0.336
- relative viability ([8]; first compound 0.04 µM): 0.415
- relative viability ([8]; first compound 0.1265 µM): 0.443
- relative viability ([8]; first compound 0.4 µM): 0.35
- relative viability ([8]; first compound 1.265 µM): 0.376
- relative viability ([8]; first compound 4 µM): 0.384
- relative viability ([9]; first compound 0.04 µM): 0.613
- relative viability ([9]; first compound 0.1265 µM): 0.543
- relative viability ([9]; first compound 0.4 µM): 0.637
- relative viability ([9]; first compound 1.265 µM): 0.738
- relative viability ([9]; first compound 4 µM): 0.687
- relative viability ([10]; first compound 0.04 µM): 0.484
- relative viability ([10]; first compound 0.1265 µM): 0.406
- relative viability ([10]; first compound 1.265 µM): 0.49
- relative viability ([10]; first compound 4 µM): 0.475
- relative viability ([11]; first compound 0.04 µM): 0.366
- relative viability ([11]; first compound 0.1265 µM): 0.369
- relative viability ([11]; first compound 0.4 µM): 0.343
- relative viability ([11]; first compound 1.265 µM): 0.375
- relative viability ([11]; first compound 4 µM): 0.334
- relative viability ([12]; first compound 0.04 µM): 0.245
- relative viability ([12]; first compound 0.1265 µM): 0.203
- relative viability ([12]; first compound 0.4 µM): 0.249
- relative viability ([12]; first compound 1.265 µM): 0.24
- relative viability ([12]; first compound 4 µM): 0.213
- relative viability ([13]; first compound 0.04 µM): 0.415
- relative viability ([13]; first compound 0.1265 µM): 0.34
- relative viability ([13]; first compound 0.4 µM): 0.37
- relative viability ([13]; first compound 1.265 µM): 0.37
- relative viability ([13]; first compound 4 µM): 0.386
- relative viability ([14]; first compound 0.04 µM): 0.462
- relative viability ([14]; first compound 0.1265 µM): 0.348
- relative viability ([14]; first compound 0.4 µM): 0.457
- relative viability ([14]; first compound 1.265 µM): 0.391
- relative viability ([14]; first compound 4 µM): 0.355
- relative viability ([15]; first compound 0.04 µM): 0.555
- relative viability ([15]; first compound 0.1265 µM): 0.496
- relative viability ([15]; first compound 0.4 µM): 0.54
- relative viability ([15]; first compound 4 µM): 0.529
- relative viability ([16]; first compound 0.04 µM): 0.411
- relative viability ([16]; first compound 0.1265 µM): 0.387
- relative viability ([16]; first compound 0.4 µM): 0.441
- relative viability ([16]; first compound 1.265 µM): 0.397
- relative viability ([16]; first compound 4 µM): 0.401
- relative viability ([17]; first compound 0.04 µM): 0.251
- relative viability ([17]; first compound 0.1265 µM): 0.209
- relative viability ([17]; first compound 0.4 µM): 0.205
- relative viability ([17]; first compound 1.265 µM): 0.268
- relative viability ([17]; first compound 4 µM): 0.22
- relative viability ([18]; first compound 0.04 µM): 0.654
- relative viability ([18]; first compound 0.1265 µM): 0.622
- relative viability ([18]; first compound 0.4 µM): 0.631
- relative viability ([18]; first compound 4 µM): 0.568
- relative viability ([19]; first compound 0.04 µM): 0.339
- relative viability ([19]; first compound 0.1265 µM): 0.309
- relative viability ([19]; first compound 0.4 µM): 0.347
- relative viability ([19]; first compound 1.265 µM): 0.309
- relative viability ([19]; first compound 4 µM): 0.305
- relative viability ([20]; first compound 0.04 µM): 0.549
- relative viability ([20]; first compound 0.1265 µM): 0.483
- relative viability ([20]; first compound 0.4 µM): 0.542
- relative viability ([20]; first compound 1.265 µM): 0.457
- relative viability ([20]; first compound 4 µM): 0.55
- relative viability ([21]; first compound 0.04 µM): 0.494
- relative viability ([21]; first compound 0.1265 µM): 0.448
- relative viability ([21]; first compound 0.4 µM): 0.544
- relative viability ([21]; first compound 1.265 µM): 0.452
- relative viability ([21]; first compound 4 µM): 0.471
- relative viability ([22]; first compound 0.04 µM): 0.398
- relative viability ([22]; first compound 0.1265 µM): 0.415
- relative viability ([22]; first compound 0.4 µM): 0.499
- relative viability ([22]; first compound 1.265 µM): 0.415
- relative viability ([22]; first compound 4 µM): 0.385
- relative viability ([23]; first compound 0.04 µM): 0.474
- relative viability ([23]; first compound 0.1265 µM): 0.456
- relative viability ([23]; first compound 0.4 µM): 0.948
- relative viability ([23]; first compound 1.265 µM): 0.489
- relative viability ([23]; first compound 4 µM): 0.489

— the supplement of paper PMC10307832
